Assay [1] relates to orbital fibroblasts. Nature of the assay: Differentiation of orbital fibroblasts into adipocytes. It counts as cell-based, human. The conditions noted are these: parent strain, transient exposure; flow analysis. From the text:
FIGS. 13A-13D show induction of differentiation of Thy-1^− orbital fibroblasts into adipocytes by the […] ligand rosiglitazone. A control phase contrast of parental strain (B) flow cytometric analysis of parental strain showing absence of adipocytes (C) phase contrast post-differentiation showing adipocyte clusters (D) flow analysis showing 44% adipocyte differentiated.
An under-appreciated feature of the tissue remodeling associated with TAO is the expansion of the fat deposit. In fact, a number of surgical therapeutic strategies are aimed directly at reducing the mass of fat in TAO. These have been variably successful in reducing the mechanical embarrassment imposed by excessive fat volumes in TAO. […] While only a small fraction of orbital fibroblasts undergo differentiation into mature adipocytes, the fraction is invariant with regard to whether the fibroblasts were from a patient with TAO or from normal orbital tissues. While this discovery was of substantial interest to us, we realized that the differentiation of such a small fraction of cells might preclude determining the phenotypic changes accompanying them. However, referring to FIGS. 12A-12D, transient exposure to the PPARγ ligand (rosiglitazone) 45 to 65% of the cells in a parent strain matured to adipocytes showing that orbital fibroblasts express abundant PPARγ. […]

The subject of another assay is TAO fibroblasts. Nature of the assay: PGE2 synthesis in TAO fibroblasts. It counts as cell-based, human. The settings on record: FIG. 7A. How it is done:
FIGS. 7A and 7B show the up-regulation of PGE2 synthesis and blockage with SC58125 (a PGHS-2 inhibitor) and dexamethasone (7A) and PGHS-2 expression (7B) in TAO fibroblasts.
Referring to FIGS. 7A and 7B, CD40 ligation in orbital fibroblasts results in the induction of PGHS-2 and leads to the over-production of PGE2. […] CD40 ligation in these cultures results in the intermediate activation of IL-1α gene expression. This induction occurs after 6 h of treatment and is mediated at the pre-translational level. IL-1β is undetectable in orbital fibroblasts and is not induced by CD154. Interrupting the expression, receptor binding or activity of IL-1α attenuates the induction of PGHS-2 provoked by CD40 ligation. It is notable that CD40 is over-expressed by thyroid epithelium in Graves' disease and provokes constitutive PGHS-2 expression. Moreover, functional CD40 is expressed by human thyroid fibroblasts.

In another assay the test system is IL-16 and RANTES. The assay is described as follows: Expression of IL-16 and RANTES (FIG. 4). It is filed as cell-based. An excerpt:
Referring to FIG. 5, these findings on the role of IL-16 and RANTES in the fibroblast/lymphocyte inflammation cascade provide options for therapies for TAO, RA and other antibody-mediated inflammatory auto-immune disorders. The method of the therapeutic aspect of the invention involves inhibiting the activity of the two chemoattractant molecules that are substantial contributors to the inflammation cascade, IL-16 and RANTES. IL-16 inhibitors include, but are not limited to, rapamycin, wortmannin, caspase-3 inhibitor, and anti-IL-16 antibody. RANTES inhibitors include, but are not limited to, SB203580, and anti-RANTES antibody. […] These compounds either block translation of the chemoattractant molecules, prevent release of chemoattractant molecules from the cell after they are translated, or neutralize the chemoattractant molecules' ability to cause lymphocytic chemotaxis after they are released.

The test system of another assay is IL-16. The assay is described as follows: IL-16 ELISA of medium from treated fibroblasts, GD donors. It is filed as cell-based, human. The settings on record: TAO orbital fibroblasts; IGF-1 10 nM, TSH high concentrations. From the text:
(§1) In addition to its therapeutic aspects, the present invention also relates to a diagnostic method for detecting the presence of antibody-activated fibroblasts in the patient. Applicants believe that several auto immune diseases or disorders are associated with antibody-activated fibroblasts. […] Altered levels of these chemoattractants can be detected in various biological samples in mammals, preferably humans. Levels of IL-16 and/or RANTES may be monitored in a patient, using standard techniques, as an indication of the deleterious aspects of the disease condition. Biological samples, including but not limited to serum, vitreous humor, aqueous humor, synovial fluid, and tissue, will be drawn from the patient using standard techniques. Particularly preferred are serum samples. The measurement of the IL-16 and RANTES levels may be monitored using any method possible to detect the levels of these proteins in biological samples. A preferred method of analysis is by ELISA as described in Sciaky, D. et al., J. Immunol. 164(7):3806-14, 2000. An ELISA specific for IL-16 can be used to assess the levels released by fibroblasts as described previously in Lim, K. G. et al., J. Immunol. 156(7): 2566-70, 1996. An ELISA specific for RANTES can be used according to the manufacturer's specification (BioSource Intl., Camarillo, Calif.).
(§2) The levels of IL-16 and RANTES were then assessed with specific ELISAs. The ELISA assay for IL-16 is performed essentially as discussed in Sciaky D., Brazer, W., Center, D. M., Cruikshank, W. W. and Smith, T. J.: Cultured human fibroblasts express constitutive IL-16 mRNA: Cytokine induction of active IL-16 protein synthesis through a caspase-3-dependent mechanism. J. Immunol. 164(7):3806-14, 2000). An ELISA (BioSource) for RANTES was performed according to the manufacturer's instructions.
In general terms: In an ELISA, binding on a coated surface is turned into a signal by an enzyme label.

For the next assay, the system named is RANTES. Nature of the assay: RANTES ELISA of medium from treated fibroblasts, GD donors. It counts as cell-based, human. The conditions noted are these: TAO orbital fibroblasts; IGF-1 10 nM, TSH high concentrations.
Description: as §1, §2

Assay [2] relates to orbital fibroblasts. Nature of the assay: IL-6 and IL-8 synthesis in orbital fibroblasts on CD40 ligation. It counts as cell-based, human. The settings on record: orbital fibroblasts treated with rCD154. An excerpt: These include IL-6 and IL-8, two important molecules critical to the activation and trafficking of bone marrow derived cells to sites of inflammation and which have been implicated in Graves' disease. […] Nuclear translocation of NF-κB is provoked by CD40 ligation and inhibiting the activation of this transcriptional factor by stabilizing the NF-κB/IκB complex can block the induction of both IL-6 and IL-8.

The values that follow come from US7998681B2, “Diagnosis and therapy of antibody-mediated inflammatory auto-immune disorders” (Los Angeles Biomedical Research Institute at Harbor-UCLA …, priority 2000, dated 2011).

For `CN(CCOc1ccc(CC2SC(=O)NC2=O)cc1)c1ccccn1` (stereo not shown) [rosiglitazone], the “cells matured (differentiated) to adipocytes” value in the assay on orbital fibroblasts [1] turned out to be 44%. Consider `CS(=O)(=O)c1ccc(-n2nc(C(F)(F)F)cc2-c2ccc(F)cc2)cc1` [SC58125], for which, in the assay with TAO fibroblasts, the “effect on up-regulation of PGE2 synthesis” value is recorded as “blockage”. On to `C[S+]([O-])c1ccc(-c2nc(-c3ccncc3)c(-c3ccc(F)cc3)[nH]2)cc1` (stereo not shown) [SB203580], for which the “effect on IL-16 and RANTES expression” value in the assay on IL-16 and RANTES is on record as “inhibition of expression”. With `COc1cccc(-c2cc(=O)c3ccccc3o2)c1N` [PD098059], the “effect on IL-16 and RANTES expression” value in the assay on IL-16 and RANTES is listed as “inhibition of expression”. For the molecule “IGF-1: authentic IGF-1, ligand of the IGF-1 receptor”, the “induction of IL-16 expression by the substance itself” value in the assay with IL-16 was “mimicked”. Further, the “induction of RANTES expression by the substance itself” value with RANTES is recorded as “mimicked”.

B1: rCD154: recombinant CD40 ligand, member of the TNF-α superfamily (protein, UniProt P29965 113-261, looked up)
CD40 ligand, soluble form: MQKGDQNPQIAAHVISEASSKTTSVLQWAEKGYYTMSNNLVTLENGKQLTVKRQGLYYIYAQVTFCSNREASSQAPFIASLCLKSPGRFERILLRAANTHSSAKPCGQQSIHLGGVFELQPGASVFVNVTDPSQVSHGTGFTSFGLLKL
Consider B1, for which the “synthesis of both IL-6 and IL-8” value in the assay with orbital fibroblasts [2] is “dramatically increased”.
